The values below are quoted from earlier work in patent US20090221522A1, “METHODS TO CORRECT GENE SET EXPRESSION PROFILES TO DRUG SENSITIVITY” (The Johns Hopkins University, priority 2008, published 2009).

The subject of the data set is pancreatic cancer. The settings on record: cited from earlier work.

Turning to `Nc1ccn([C@@H]2O[C@H](CO)[C@@H](O)C2(F)F)c(=O)n1` [gemcitabine], the “patients who benefit from this therapy” value (first-line) was about 20%. Further, the response rate result (pancreatic cancer patients) is “less than 20%”.
